Like-named read-outs stand apart in the source and are kept apart here. *1 amine or outer side, *2 acyl side, *3 side chain or, on linkers, in order; H or OH if unused. Where a SMILES comes first, the peptide text is derived from it. [ ]: non-standard residue; d: D form. The star is where a group is joined. ξ: configuration not given here. X1 = Cc1ccc2c(c1)CCN([*:1])[C@@H]2C(=O)[*:2]; ξ(indoline-2-carboxyl) = O=C(O)C1Cc2ccccc2N1; ξTHIQ1CO(6-Me) = Cc1ccc2c(c1)CCNC2C(=O)O; X3 = O=C([C@@H]1Cc2ccccc2N1[*:1])[*:2]; Aad = N[C@@H](CCCC(=O)O)C(=O)O; Thr(3ξ) = CC(O)[C@H](N)C(=O)O; Bn = c1ccc(C*)cc1
Assays:
human caspase-2 = target: T1, human caspase-2 (Homo sapiens, UniProt P42575); experiment: Fluorescent enzyme assay, Casp2 (AFC substrate Z-VDVAD-AFC); assay type: biochemical; conditions: for Ki (Casp3) / Ki (Casp2): selectivity Casp2 over Casp3
T1 construct: inferred from pET23b, XhoI reverse primer without stop codon, Ni-NTA purification) (C); made in house; host or cells: E. coli BL21(DE3)
T1 sequence (P42575 170-452): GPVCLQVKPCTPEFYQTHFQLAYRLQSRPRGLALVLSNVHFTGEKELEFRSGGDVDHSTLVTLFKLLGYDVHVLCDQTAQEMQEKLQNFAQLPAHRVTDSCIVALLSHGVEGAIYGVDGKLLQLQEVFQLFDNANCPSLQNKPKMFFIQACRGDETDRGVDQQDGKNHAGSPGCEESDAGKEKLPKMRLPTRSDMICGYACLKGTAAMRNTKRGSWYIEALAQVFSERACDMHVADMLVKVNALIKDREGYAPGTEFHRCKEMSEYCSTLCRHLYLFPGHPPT
Text: (§1) Human recombinant Casp1, 6, 7, and 9 were purchased from BioVision (Milpitas/CA, USA). AFC fluorogenic substrates and control peptides (AcYVAD-CHO, AcVDVAD-CHO, AcDEVD-CHO, AcVEID-CHO, and AcLEHD-CHO) were purchased from Bachem (Torrance/CA, USA). The pET23b vector encoding human caspase-3 was a gift of Dr. Michelle Arkin at University of California, San Francisco. Expression and purification of Casp3 was guided by previously described protocols (Denault J-B, Salvesen G S., Current Protocols in Protein Science, 2002, 30(1), 21.13. 1-21.13. 15). Briefly, the plasmid was transformed into E. coli Rosetta 2 pLyss DE3 cells that were cultured at 1 L scale in shake flasks. Five hours post induction with IPTG, cells were harvested through centrifugation (4000 g for 10 minutes at 4° C.), lysed by sonication, and centrifuged again for 30 minutes at 20000 g. Supernatant was resuspended in buffer (100 mM Tris pH 8.0, 500 mM NaCl). Purification was achieved by nickel-affinity chromatography followed by ion-exchange chromatography. Protein was diluted to 0.5 mg/mL and stored at −80° C. in 100 mM Tris, pH 8.0 supplemented with 10% glycerol. The typical yield for the expression, isolation, and purification was approximately 3 mg/L. The DNA encoding human caspase-2 (hCASP2, amino acids 170-452, free of the N-terminal caspase activation and recruitment domain) open reading frame (ORF) was amplified via polymerase chain reaction (PCR) from full-length hCASP2 cDNA (Origene, Rockville, MD; Cat #SC321316) using following primers: forward, 5′-[…]-3′; reverse, 5′-[…]-3′. The PCR fragment was then cloned into the pET23b vector (Millipore Sigma, Burlington, MA), and DNA sequence was verified by classic Sanger sequencing analyses. Site-directed mutageneses were carried out using a QuikChange II XL site-directed mutagenesis kit (Agilent Technologies, Santa Clara, CA; Cat #200522) according to the manufacturer's instruction. Expression of recombinant hCASP2 was induced using 150 μM isopropyl-β-D-thiogalactopyranoside (IPTG) (Promega, Madison, WI) in the BL21(DE3) E. coli strain (Millipore Sigma) at 16° C. for 14 hours while shaking at 250 rpm. Cells were then harvested via centrifugation at 6,000 g, 4° C. for 15 minutes, followed by lysis via sonication. Proteins were initially purified using HisPur Ni-NTA resin (Thermo Fisher Scientific, Waltham, MA) followed by metal chelating chromatography (5 mL HiTrap Chelating HP columns (GE Healthcare Life Sciences, Piscataway, NJ)). Further purification was carried out using anion exchange chromatography (5 mL HiTrap Q HP columns (GE Healthcare Life Sciences)) for hCASP2. Proteins were stored in 1× phosphate-buffered saline (pH 7.4) at 10 mg/mL (concentration determined using a BCA assay (Thermo Fisher Scientific)), −80° C. until further use.
(§2) KM values were determined experimentally to be the following: Casp1: 5.9 μM; Casp2: 37.1 μM; Casp3: 7.6 μM; Casp6: 14.5 μM; Casp7: 13.8 μM; Casp9: 149.1 μM. Enzymes were diluted in buffer: 100 mM MES (pH 6.5) for Casp2 and or 100 mM HEPES (pH 7.0) for all other caspases, plus 150 mM NaCl, 0.1% CHAPS, 1.5% sucrose, 10 mM DTT. Enzyme concentrations were 0.05 U/well for Casp1, 6, and 7; 0.5 U/well for Casp9, 20 nM/well for Casp2, and 2 nM/well for Casp3. Enzyme in buffer (19 μL) was added per well in a black 384-well Corning 4514 assay plate. Test compounds were serially diluted in dimethyl sulfoxide (DMSO) and plated in duplicate into a Corning 3656 transfer plate. Test compound was added to assay plates in 0.5 μL aliquots per well and mixed 10 times using a BiomekFX (Beckman Coulter). Compound and enzyme mixture was incubated at 37° C. for 5 minutes for aldehyde warheads and 45 minutes for cyano warheads. […]

human caspase-3 = target: T2, human caspase-3 (Homo sapiens, UniProt P42574); experiment: Fluorescent enzyme assay, Casp3 (AFC substrate AcDEVD-AFC); assay type: biochemical
T2 construct: made in house; host or cells: E. coli Rosetta 2 pLysS DE3
T2 sequence (P42574 29-277): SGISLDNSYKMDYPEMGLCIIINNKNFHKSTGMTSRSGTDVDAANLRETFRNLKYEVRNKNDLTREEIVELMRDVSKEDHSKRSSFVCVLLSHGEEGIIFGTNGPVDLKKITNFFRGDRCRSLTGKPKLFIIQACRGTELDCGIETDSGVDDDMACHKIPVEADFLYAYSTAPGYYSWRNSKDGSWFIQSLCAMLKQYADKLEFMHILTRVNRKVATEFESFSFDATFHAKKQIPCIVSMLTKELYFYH
Text: as §1, §2

[1] = mean ± SEM of N independent experiments, each in duplicate or triplicate, read-out: pKi ± SEM Casp 2 (converted)
[2] = mean ± SEM of N independent experiments, each in duplicate or triplicate, read-out: pKi ± SEM Casp 3 (converted)

Row | Structure (SMILES) | Ki (human caspase-2; [1]) [µM] | Ki (human caspase-3; [2]) [µM] | Ki (human caspase-2) [µM] | Ki (Casp3) / Ki (Casp2) (human caspase-2) | Ki (human caspase-3) [µM]
1 | Cc1ccc2c(c1)CCN(C(=O)CNC(=O)CNC(=O)[C@@H]1Cc3ccccc3N1)[C@@H]2C(=O)N[C@H](C=O)CC(=O)O [Compound 3, (S)-3-((S)-2-(((S)-indoline-2-carbonyl)glycylglycyl)-6-methyl-1,2,3,4-tetrahydroisoquinolin-1-carboxamido)-4-oxobutanoic acid hydrotrifluoroacetate] | > 100 | > 100 | – | – | –
2 | Cc1ccc2c(c1)CCN(C(=O)CCCCNC(=O)[C@@H]1Cc3ccccc3N1)[C@@H]2C(=O)N[C@H](C=O)CC(=O)O [Compound 4, (S)-3-((S)-2-(5-((S)-indoline-2-carboxamido)pentanoyl)-6-methyl-1,2,3,4-tetrahydroisoquinoline-1-carboxamido)-4-oxobutanoic acid hydrotrifluoroacetate] | > 100 | > 100 | – | – | –
3 | Cc1ccc2c(c1)CCN(C(=O)[C@@H](NC(=O)[C@H](CCCC(=O)O)NC(=O)C1Cc3ccccc3N1)C(C)C)[C@@H]2C(=O)N[C@H](C=O)CC(=O)O (stereo partly drawn) [Compound 2, (S)-6-(((S)-1-((S)-1-(((S)-1-carboxy-3-oxopropan-2-yl)carbamoyl)-6-methyl-3,4-dihydroisoquinolin-2(1H)-yl)-3-methyl-1-oxobutan-2-yl)amino)-5-((S)-indoline-2-carboxamido)-6-oxohexanoic acid hydrotrifluoroacetate] (H-[ξ(indoline-2-carboxyl)][Aad]V[X1]D-aldehyde) | – | – | 0.0398 | 794 | > 31.6
4 | Cc1ccc2c(c1F)CCN(C(=O)[C@@H](NC(=O)[C@H](CCCC(=O)O)NC(=O)[C@H]1Nc3ccc(F)cc3C1(C)C)C(C)C)C2C(=O)N[C@H](C=O)CC(=O)O (stereo partly drawn) [Compound 15, (S)-6-(((S)-1-((S)-1-(((S)-1-carboxy-3-oxopropan-2-yl)carbamoyl)-5-fluoro-6-methyl-3,4-dihydroisoquinolin-2(1H)-yl)-3-methyl-1-oxobutan-2-yl)amino)-5-((S)-5-fluoro-3,3-dimethylindoline-2-carboxamido)-6-oxohexanoic acid hydrotrifluoroacetate] | – | – | 0.174 | 575 | > 100
5 | CC(=O)N1c2ccccc2C[C@H]1C(=O)N[C@@H](CCCC(=O)O)C(=O)N[C@H](C(=O)N1CCc2cc(C)ccc2[C@H]1C(=O)N[C@H](C=O)CC(=O)O)C(C)C [Compound 9, (S)-5-((S)-1-acetylindoline-2-carboxamido)-6-(((S)-1-((S)-1-(((S)-1-carboxy-3-oxopropan-2-yl)carbamoyl)-6-methyl-3,4-dihydroisoquinolin-2(1H)-yl)-3-methyl-1-oxobutan-2-yl)amino)-6-oxohexanoic acid] | 0.38 | > 100 | – | 263 | –
6 | Cc1ccc2c(c1F)CCN(C(=O)[C@@H](NC(=O)[C@H](CCCC(=O)O)NC(=O)[C@@H]1Cc3ccccc3N1)C(C)C)C2C(=O)N[C@H](C=O)CC(=O)O (stereo partly drawn) [Compound 14, (S)-6-(((S)-1-((S)-1-(((S)-1-carboxy-3-oxopropan-2-yl)carbamoyl)-5-fluoro-6-methyl-3,4-dihydroisoquinolin-2(1H)-yl)-3-methyl-1-oxobutan-2-yl)amino)-5-((S)-indoline-2-carboxamido)-6-oxohexanoic acid hydrotrifluoroacetate] | – | – | 0.191 | 525 | > 100
7 | CC(=O)N1c2ccccc2C[C@H]1C(=O)N[C@@H](CCCC(=O)O)C(=O)NCC(=O)N1CCc2cc(C)ccc2[C@H]1C(=O)N[C@H](C=O)CC(=O)O [Compound 7, (S)-5-((S)-1-acetylindoline-2-carboxamido)-6-((2-((S)-1-(((S)-1-carboxy-3-oxopropan-2-yl)carbamoyl)-6-methyl-3,4-dihydroisoquinolin-2(1H)-yl)-2-oxoethyl)amino)-6-oxohexanoic acid] | 0.0295 | > 100 | – | 3388 | –
8 | Cc1ccc2c(c1)CCN(C(=O)[C@@H](NC(=O)[C@H](CCCC(=O)O)NC(=O)[C@@H]1Nc3ccc(F)cc3C1(C)C)C(C)C)[C@@H]2C(=O)N[C@H](C=O)CC(=O)O [Compound 12, (S)-6-(((S)-1-((S)-1-(((S)-1-carboxy-3-oxopropan-2-yl)carbamoyl)-6-methyl-3,4-dihydroisoquinolin-2(1H)-yl)-3-methyl-1-oxobutan-2-yl)amino)-5-((R)-5-fluoro-3,3-dimethylindoline-2-carboxamido)-6-oxohexanoic acid hydrotrifluoroacetate] | – | – | 4.17 | 24 | > 100
9 | Cc1ccc2c(c1)CCN(C(=O)[C@@H](NC(=O)[C@H](CCCC(=O)O)NC(=O)[C@H]1Nc3ccc(F)cc3C1(C)C)C(C)C)C2C(=O)N[C@H](C=O)CC(=O)O (stereo partly drawn) [Compound 13, (S)-6-(((S)-1-((S)-1-(((S)-1-carboxy-3-oxopropan-2-yl)carbamoyl)-6-methyl-3,4-dihydroisoquinolin-2(1H)-yl)-3-methyl-1-oxobutan-2-yl)amino)-5-((S)-5-fluoro-3,3-dimethylindoline-2-carboxamido)-6-oxohexanoic acid hydrotrifluoroacetate] | – | – | 0.646 | 155 | > 100
10 | CC(=O)N1c2ccccc2C[C@H]1C(=O)N[C@@H](CCCC(=O)O)C(=O)N[C@H](C(=O)N1CCc2cc(C)ccc2[C@H]1C(=O)N[C@H](C=O)CC(=O)O)C(C)(C)C [Compound 10, (S)-5-((S)-1-acetylindoline-2-carboxamido)-6-(((S)-1-((S)-1-(((S)-1-carboxy-3-oxopropan-2-yl)carbamoyl)-6-methyl-3,4-dihydroisoquinolin-2(1H)-yl)-3,3-dimethyl-1-oxobutan-2-yl)amino)-6-oxohexanoic acid] | 2.14 | > 100 | – | 47 | –
11 | Cc1ccc2c(c1)CCN(C(=O)[C@@H](NC(=O)[C@H](CCCC(=O)O)NC(=O)[C@@H]1Cc3ccccc3N1)C(C)OCc1ccccc1)C2C(=O)N[C@H](C=O)CC(=O)O (stereo partly drawn) [Compound 6, (S)-6-(((2S,3S)-3-(benzyloxy)-1-((S)-1-(((S)-1-carboxy-3-oxopropan-2-yl)carbamoyl)-6-methyl-3,4-dihydroisoquinolin-2(1H)-yl)-1-oxobutan-2-yl)amino)-5-((S)-indoline-2-carboxamido)-6-oxohexanoic acid hydrotrifluoroacetate] (H-[X3][Aad][Thr(3ξ)](Bn)[ξTHIQ1CO(6-Me)]D-aldehyde) | – | – | 2.29 | 14 | 33.1

Reference: US20250188123A1, “PROTEASE INHIBITORS” (Regents of the University of Minnesota, priority 2022, published 2025)
